Laboratory results from PubChem BioAssay AID330 (DTP/NCI, 2004).
“And” between values parts separate entries of the source, which are not always exact repeats. Equal entries are not always repeated. Inconclusive results and toxic doses are left out. How the source made its calls: active means survival T/C of 150% or more; inactive means T/C below 125% in these data.

Tested on: P388 leukemia ip, CD2F1 mice, survival T/C
Assay: NCI In Vivo Anticancer Drug Screen. Data for tumor model P388 Leukemia (intraperitoneal) in CD2F1 (CDF1) mice
Details: endpoint: median survival time, higher = longer survival
Method in brief: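 Mice carrying the transplanted tumor received test compound or vehicle. Survival was recorded in each group, and the value is the treated-group measurement divided by that of the vehicle-treated control group.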

[1] = dose: 50.0 mg/kg/injection, schedule: Q01DX009 (ip), vehicle: saline with Tween-80
[2] = dose: 100.0 mg/kg/injection, schedule: Q01DX009 (ip), vehicle: saline with Tween-80
[3] = dose: 200.0 mg/kg/injection, schedule: Q01DX009 (ip), vehicle: saline with Tween-80
[4] = dose: 50.0 mg/kg/injection, schedule: Q01DX005 (ip), vehicle: saline with Tween-80
[5] = dose: 100.0 mg/kg/injection, schedule: Q01DX005 (ip), vehicle: saline with Tween-80
[6] = dose: 100.0 mg/kg/injection, schedule: Q04DX003 (ip), vehicle: saline with Tween-80
[7] = dose: 200.0 mg/kg/injection, schedule: Q04DX003 (ip), vehicle: saline with Tween-80
[8] = dose: 400.0 mg/kg/injection, schedule: Q04DX003 (ip), vehicle: saline with Tween-80
[9] = dose: 60.0 mg/kg/injection, schedule: Q01DX005 (ip), vehicle: saline with Tween-80
[10] = dose: 120.0 mg/kg/injection, schedule: Q01DX005 (ip), vehicle: saline with Tween-80
[11] = dose: 240.0 mg/kg/injection, schedule: Q01DX005 (ip), vehicle: saline with Tween-80
[12] = dose: 200.0 mg/kg/injection, schedule: Q01DX005 (ip), vehicle: saline with Tween-80
[13] = dose: 50.0 mg/kg/injection, schedule: Q01DX009 (ip), vehicle: Klucel (hydroxypropylcellulose) (HPC)
[14] = dose: 100.0 mg/kg/injection, schedule: Q01DX009 (ip), vehicle: Klucel (hydroxypropylcellulose) (HPC)
[15] = dose: 25.0 mg/kg/injection, schedule: Q01DX009 (ip), vehicle: saline with Tween-80

Measured: T/C

Cc1ccc(NCCN(C)C)c2c(=O)c3cccc(O)c3sc12
inactive: [1] 100 % of control | [2] 95 % of control | [3] 97 % of control

CN1CCC23c4c5ccc(O)c4OC2C(O)C=CC3C1C5 (stereo not given)
inactive: dose: 32.0 mg/kg/injection, schedule: Q01DX009 (ip), vehicle: saline 97 % of control | dose: 64.0 mg/kg/injection, schedule: Q01DX009 (ip), vehicle: saline 106 % of control | dose: 128.0 mg/kg/injection, schedule: Q01DX009 (ip), vehicle: saline 95 % of control

CN(/C(=N/C(=S)NCc1ccccc1)SCc1ccccc1)c1ccccc1
inactive: [4] 94 % of control | [5] 86 % of control

CCOC(=O)c1cc([N+](=O)[O-])c(SSc2sc(C(=O)OCC)cc2[N+](=O)[O-])s1
inactive: [6] 104 % of control | [7] 96 % of control | [8] 95 % of control

CC(C)=CCCC(C)(OC1OC(CO)C(O)C(O)C1O)C1CCC2(C)C1C(O)CC1C3(C)CCC(O)C(C)(C)C3C(OC3OC(CO)C(O)C(O)C3OC3OC(C)C(O)C(O)C3O)CC12C (stereo not given) (tested in a mixture with another compound)
inactive: dose: 18.75 mg/kg/injection, schedule: Q01DX009 (ip), vehicle: Klucel (hydroxypropylcellulose) (HPC) 101 % of control | dose: 37.5 mg/kg/injection, schedule: Q01DX009 (ip), vehicle: Klucel (hydroxypropylcellulose) (HPC) 101 % of control | dose: 75.0 mg/kg/injection, schedule: Q01DX009 (ip), vehicle: Klucel (hydroxypropylcellulose) (HPC) 100 % of control | dose: 150.0 mg/kg/injection, schedule: Q01DX009 (ip), vehicle: Klucel (hydroxypropylcellulose) (HPC) 100 % of control

CC1C(=O)C23CC1CCC2C12COC(=O)C1C(C)(C)C(O)CC2OC3=O (stereo not given)
inactive: dose: 50.0 mg/kg/injection, schedule: Q04DX002 (ip), vehicle: saline with Tween-80 113 % of control | dose: 100.0 mg/kg/injection, schedule: Q04DX002 (ip), vehicle: saline with Tween-80 93 % of control | dose: 200.0 mg/kg/injection, schedule: Q04DX002 (ip), vehicle: saline with Tween-80 112 % of control

Nc1nc(N)c2cc(C=O)ccc2n1
inactive: dose: 0.39 mg/kg/injection, schedule: Q01DX009 (ip), vehicle: distilled water + Tween-80 100 % of control | dose: 0.78 mg/kg/injection, schedule: Q01DX009 (ip), vehicle: distilled water + Tween-80 101 % of control | dose: 1.56 mg/kg/injection, schedule: Q01DX009 (ip), vehicle: distilled water + Tween-80 110 % of control | dose: 3.13 mg/kg/injection, schedule: Q01DX009 (ip), vehicle: distilled water + Tween-80 100 % of control | dose: 6.25 mg/kg/injection, schedule: Q01DX009 (ip), vehicle: distilled water + Tween-80 109 % of control

NC(N)=NN=C(C1CC1)C1CC1
inactive: dose: 50.0 mg/kg/injection, schedule: Q01DX005 (ip), vehicle: Klucel (hydroxypropylcellulose) (HPC) 100 % of control | dose: 100.0 mg/kg/injection, schedule: Q01DX005 (ip), vehicle: Klucel (hydroxypropylcellulose) (HPC) 98 % of control | dose: 200.0 mg/kg/injection, schedule: Q01DX005 (ip), vehicle: Klucel (hydroxypropylcellulose) (HPC) 103 % of control

CC(=O)n1[nH]c(=O)ccc1=O
inactive: dose: 100.0 mg/kg/injection, schedule: Q04DX003 (ip), vehicle: saline 115 % of control | dose: 200.0 mg/kg/injection, schedule: Q04DX003 (ip), vehicle: saline 107 % of control | dose: 400.0 mg/kg/injection, schedule: Q04DX003 (ip), vehicle: saline 115 % of control

Cc1cc(NC(=O)c2ccc(C(=O)Nc3ccc(C4=NCCN4)c(C)c3)cc2)ccc1C1=NCCN1
inactive: [6] 118 % of control | [7] 104 % of control | [8] 104 % of control

COc1cc2c(c(C3C(=O)N(C)c4ccc(Br)cc43)c1OC)OCO2 (stereo not given)
inactive: [9] 95 % of control | [10] 91 % of control | [11] 98 % of control

CC(=O)C(N=Nc1ccc(S(=O)(=O)Nc2ncccn2)cc1)C(C)=O
inactive: [6] 92 % of control | [7] 88 % of control | [8] 90 % of control

CCOc1ccc(NS(=O)(=O)c2ccc(F)cc2)cc1
inactive: [9] 99 % of control | [10] 88 % of control | [11] 95 % of control

Cc1nn2c(nnn2CCO)c1-c1ccccc1
inactive: dose: 60.0 mg/kg/injection, schedule: Q01DX005 (ip), vehicle: Klucel (hydroxypropylcellulose) (HPC) 105 % of control | dose: 120.0 mg/kg/injection, schedule: Q01DX005 (ip), vehicle: Klucel (hydroxypropylcellulose) (HPC) 91 % of control | dose: 240.0 mg/kg/injection, schedule: Q01DX005 (ip), vehicle: Klucel (hydroxypropylcellulose) (HPC) 91 % of control

C=CCNC(=S)Nc1ccccn1
inactive: [4] 104 % of control | [5] 100 % of control | [12] 102 % of control

CCN(CC)Cc1c(C)[nH]c2cc(N(C)C)ccc2c1=O
inactive: [13] 96 % of control | [14] 97 % of control

CCOC(=O)C[n+]1ccc2c([nH]c3cc(OC)ccc32)c1C
inactive: dose: 50.0 mg/kg/injection, schedule: Q01DX009 (ip), vehicle: saline 97 % of control | dose: 100.0 mg/kg/injection, schedule: Q01DX009 (ip), vehicle: saline 112 % of control | dose: 200.0 mg/kg/injection, schedule: Q01DX009 (ip), vehicle: saline 110 % of control

CC1(CO)CSC(Nc2ccc(Cl)c(Cl)c2)=N1 (stereo not given)
inactive: dose: 3.12 mg/kg/injection, schedule: Q01DX009 (ip), vehicle: saline with Tween-80 101 % of control | dose: 6.25 mg/kg/injection, schedule: Q01DX009 (ip), vehicle: saline with Tween-80 100 % of control and 98 % of control | dose: 12.5 mg/kg/injection, schedule: Q01DX009 (ip), vehicle: saline with Tween-80 102 % of control | [15] 104 % of control | [1] 100 % of control | [2] 113 % of control | [3] 98 % of control

COC(=O)c1ccccc1NC(CCN1CCN(c2ccccc2)CC1)=NC(C)(C)C
inactive: [13] 100 % of control | [14] 102 % of control

CC1(C)NNC(=S)NN1
inactive: dose: 7.5 mg/kg/injection, schedule: Q01DX005 (ip), vehicle: saline with Tween-80 103 % of control | dose: 15.0 mg/kg/injection, schedule: Q01DX005 (ip), vehicle: saline with Tween-80 104 % of control

C=CCN1C(=O)CS/C1=N\NC(=O)Cc1nc2ccccc2[nH]1
inactive: dose: 100.0 mg/kg/injection, schedule: Q01DX001 (ip), vehicle: Klucel (hydroxypropylcellulose) (HPC) 101 % of control | dose: 200.0 mg/kg/injection, schedule: Q01DX001 (ip), vehicle: Klucel (hydroxypropylcellulose) (HPC) 105 % of control | dose: 400.0 mg/kg/injection, schedule: Q01DX001 (ip), vehicle: Klucel (hydroxypropylcellulose) (HPC) 92 % of control

COC(=O)C1CC2C(=O)N(C)C(Br)C(Br)C12 (stereo not given)
inactive: dose: 100.0 mg/kg/injection, schedule: Q04DX002 (ip), vehicle: saline 101 % of control | dose: 200.0 mg/kg/injection, schedule: Q04DX002 (ip), vehicle: saline 95 % of control

COc1cccc(/C=N/NC(=O)c2ccccc2N2CCCC2)c1O
inactive: dose: 12.5 mg/kg/injection, schedule: Q01DX009 (ip), vehicle: olive oil, sesame oil, peanut oil 93 % of control | dose: 25.0 mg/kg/injection, schedule: Q01DX009 (ip), vehicle: olive oil, sesame oil, peanut oil 97 % of control | dose: 50.0 mg/kg/injection, schedule: Q01DX009 (ip), vehicle: olive oil, sesame oil, peanut oil 97 % of control | dose: 100.0 mg/kg/injection, schedule: Q01DX009 (ip), vehicle: olive oil, sesame oil, peanut oil 96 % of control | dose: 200.0 mg/kg/injection, schedule: Q01DX009 (ip), vehicle: olive oil, sesame oil, peanut oil 94 % of control

O/N=c1\cc(-c2ccccc2)oc2ccccc12
inactive: dose: 16.7 mg/kg/injection, schedule: Q01DX009 (ip), vehicle: saline with Tween-80 97 % of control | [15] 102 % of control | dose: 37.5 mg/kg/injection, schedule: Q01DX009 (ip), vehicle: saline with Tween-80 100 % of control

O=S1(=O)c2ccccc2C(O)(c2ccccc2)c2cc3ccccc3n21 (stereo not given)
inactive: [1] 93 % of control | [2] 96 % of control | [3] 92 % of control

CC(=O)Nc1ccc(C(c2c(O)cc(C)[nH]c2=O)c2c(O)cc(C)[nH]c2=O)cc1
inactive: [1] 104 % of control | [2] 112 % of control | [3] 112 % of control

COC1=CC(=O)C(C(C)=O)=C(C2(C)C(=O)CCCC2=O)C1=O
inactive: [4] 106 % of control | [5] 89 % of control | [12] 104 % of control
